Measured values published in patent publication US10870876B2, “Method for detecting a presence or absence of at least one first zone of inhibition” (BIOMÉRIEUX, priority 2015, dated 2020).
In brackets after ≈: the same amount, converted by molar mass.

How the values were obtained:
Format in all cases: cell-based
[1] = test system: Escherichia coli ATCC 35218; experiment: Etest strip MIC, deposition of the sample in droplets along the strip; set-up: key to minimum inhibitory concentration / MIC: R = resistant
Description: (§1) FIGS. 8a to 8d and 9a to 9d illustrate this second example of implementation of the invention. According to FIG. 8a, a sample 1 is deposited in the form of a series of droplets, along an axis parallel to the long edge of a strip 3 containing a concentration gradient of chemical agent. The strip 3 comprises graduations of concentrations of chemical agent 13, making it possible to deduce a minimum inhibitory concentration of chemical agent. An example of such a strip is sold by the applicant under the trade name Etest®. According to the FIG. 8b, a strip 3 containing a chemical agent 5 is deposited on a culture medium 2 contained in a Petri dish 4 (for example a Petri dish with a diameter greater than or equal to 9 cm). The detail B in FIG. 8b is visible in FIG. 8c. A sample 1 is deposited in the form of a series of droplets in a deposition zone 8 along an axis 7 parallel to the long edge of the strip 3. In this example, 13 nanoliter drops are deposited by a Pipejet P9 Nanodispenser pipette sold by the company biofluidix and mounted on a robotic arm. The detail C in FIG. 8c is visible in FIG. 8d. 50 droplets are thus deposited along the axis 7 with an interval P of 800 μm. Each droplet covers a surface area of approximately 1 mm^2.
(§2) According to a first experiment of this example, an inoculum of a strain of Escherichia coli ATCC 35218 (American Type Culture Collection) having a concentration of 0.5 McFarland is thus deposited in droplets along four Etest® strips (bioMérieux), each deposited on a Mueller Hinton E agar culture medium (bioMérieux). The strips contain respectively a concentration gradient of gentamicin, tetracycline, ampicillin/sulbactam, ampicillin. In the same manner, an inoculum of a strain of Escherichia coli ATCC 25922 having a concentration of 0.5 McFarland is deposited in droplets along four Etest® strips (bioMérieux), each deposited on a Mueller Hinton E agar culture medium (bioMérieux). The strips also contain a concentration gradient of gentamicin, tetracycline, ampicillin/sulbactam, ampicillin.
(§3) Fifty droplets, each with a volume of 13 nanoliters and spaced apart by 800 μm, are deposited along each strip. As a function of the concentration of 0.5 McFarland, it is thus estimated that approximately 2000 bacteria are present in each droplet. The eight culture media prepared in this way are then incubated and monitored periodically in order to determine the presence or the absence of a zone of inhibition and/or of growth of the microorganisms.
FIGS. 9a to 9d illustrate a plan view of the four media in which the sample of Escherichia coli ATCC 35218 was deposited. FIGS. 9a to 9d are obtained by means of a shadowgraphy capture device as presented in relation to FIG. 5. FIG. 9a presents a view after 5 hours of incubation of the sample in the presence of gentamicin. […] A minimum inhibitory concentration value is then obtained at the intersection between the straight line 14 and the long edge of the strip. A minimum inhibitory concentration (MIC) of 2 μg/ml is thus determined.
Advantageously, a straight line or an arc 15 delimiting the boundary of the zone of growth of microorganisms and the zone of inhibition may be sought, this straight line not necessarily being perpendicular to the long edge and thus reproducing said boundary more faithfully. This straight line or this arc corresponds to a portion of the ovoid area of inhibition observed with conventional inoculation methods and therefore enables better estimation of the MIC. In the case in which a straight line or an arc 15 is sought, the minimum inhibitory concentration may be obtained by tracing a line perpendicular to the long edge of the strip, crossing the point of intersection between the straight line 15 and the axis of deposition of the sample 7, then by seeking the graduation corresponding to this perpendicular line on the strip. […]

[2] = test system: Escherichia coli ATCC 25922; experiment: Etest strip MIC, conventional method by flooding of the medium; conditions: for MIC: Escherichia coli, ATCC25922, ATCC 25922, 0.5 McFarland, read-out: minimum inhibitory concentration; for minimum inhibitory concentration: ATCC 25922, 0.5 McFarland
Method: (§4) Another method for detecting sensitivity to antibiotics uses an antibiotic gradient deposited on an agar medium. For this purpose, paper or plastic strips are impregnated with a concentration gradient of antibiotic. The strips soaked in this way are graduated so as to indicate the antibiotic concentration values present along the strip. One or more strips may be placed on a Mueller-Hinton agar, inoculated beforehand in the same way as the above method. After incubation, an ovoid area of inhibition of microbial growth around each strip appears if the microorganism present in the sample is sensitive to the antibiotic contained in the strip. It is thus possible to deduce a minimum inhibitory concentration (MIC) for microbial growth. The minimum concentration of the antimicrobial agent which makes it possible to inhibit the growth of the microorganism which is generally retained is thus the value of the concentration which can be read on the graduation directly below the point of contact between the zone of inhibition and the long edge of the strip. In other words, the MIC is the concentration visible at the limit of the zone of inhibition, at the boundary between the zone of growth of the microorganisms and the zone of non-growth. More particularly, the MIC can be read by noting the point at which the ovoid area of the zone of inhibition intersects the strip, and by noting the corresponding graduation.
as §2
(§5) The values are given in μg/ml at different incubation times. The inhibition values for the flooding method are measured from images obtained by a shadowgraphy capture device as described above. The inhibition values for the method according to the invention are measured from images obtained by a shadowgraphy capture device at 5 hours, and visually at 7 hours.

[3] = test system: Escherichia coli ATCC 25922; experiment: Etest strip MIC, deposition of the sample in droplets along the strip; conditions: for MIC: Escherichia coli, ATCC25922, ATCC 25922, 0.5 McFarland, read-out: minimum inhibitory concentration; for minimum inhibitory concentration: ATCC 25922, 0.5 McFarland
Description: as §1, §2, §3
as §5, with “The minimum inhibitory concentration results obtained for the strains of Escherichia coli ATCC 35218 and also the strains of Escherichia coli ATCC 25922 are compared with the conventional method by flooding of the medium in table 1 below. The values” for “The values”

[4] = test system: Escherichia coli ATCC 35218; experiment: Etest strip MIC, conventional method by flooding of the medium; set-up: key: R = resistant
Method: as §4, §2, §5

[5] = Deposition in droplets, ATCC 35218, 0.5 McFarland, incubation time 5 H (shadowgraphy)
[6] = Deposition in droplets, ATCC 35218, 0.5 McFarland, incubation time 7 H (visual)
[7] = Escherichia coli, ATCC35218, droplets of 13 nanoliters, ATCC 35218 at 0.5 McFarland, after 5 hours of incubation, shadowgraphy (FIGS. 9a-9d), read-out: minimum inhibitory concentration (MIC)
[8] = Table 2, droplet (replicate 1 where replicated), ATCC 35218, 0.5 McF, 5 H
[9] = Table 2, droplet (replicate 1 where replicated), ATCC 35218, 0.5 McF, 7 H
[10] = incubation time 5 H (shadowgraphy)
[11] = Flooding, ATCC 35218, 0.5 McFarland, incubation time 6 H
[12] = Flooding, ATCC 35218, 0.5 McFarland, incubation time 8 H
[13] = Table 2, flooding, ATCC 35218, 28 H

## CC1(C)S[C@@H]2[C@H](NC(=O)[C@H](N)c3ccccc3)C(=O)N2[C@H]1C(=O)O [Ampicillin, ampicillin]
[1]; [5]
  minimum inhibitory concentration: R
[1]; [6]
  minimum inhibitory concentration: R
[1]; [7]
  MIC: > 256 µg/mL
[1]; [8]
  MIC: R
[1]; [9]
  MIC: R
[2]; incubation time 6 H
  MIC: 3.43 µg/mL (≈ 9.82 µM)
[2]; incubation time 8 H
  MIC: 5.21 µg/mL (≈ 14.9 µM)
[2]; incubation time 18 H
  MIC: 5.69 µg/mL (≈ 16.3 µM)
[3]; [10]
  MIC: 8 µg/mL (≈ 22.9 µM)
[3]; incubation time 7 H (visual)
  MIC: 8 µg/mL (≈ 22.9 µM)
[4]; [11]
  minimum inhibitory concentration: R
[4]; [12]
  minimum inhibitory concentration: R
[4]; Flooding, ATCC 35218, 0.5 McFarland, incubation time 18 H
  minimum inhibitory concentration: R
[4]; [13]
  MIC: R

## CN(C)[C@@H]1C(O)=C(C(N)=O)C(=O)[C@@]2(O)C(O)=C3C(=O)c4c(O)cccc4[C@@](C)(O)[C@H]3C[C@@H]12 [Tetracycline, tetracycline]
[1]; Escherichia coli, ATCC35218, Deposition in droplets, ATCC 35218, 0.5 McFarland, incubation time 5 H (shadowgraphy), read-out: minimum inhibitory concentration
  MIC: 1.5 µg/mL (≈ 3.38 µM)
[1]; Escherichia coli, ATCC35218, Deposition in droplets, ATCC 35218, 0.5 McFarland, incubation time 7 H (visual), read-out: minimum inhibitory concentration
  MIC: 2 µg/mL (≈ 4.5 µM)
[1]; Escherichia coli, ATCC35218, Table 2, droplet (replicate 1 where replicated), ATCC 35218, 0.5 McF, 5 H, read-out: MIC
  MIC: 1.5 µg/mL (≈ 3.38 µM)
[1]; Escherichia coli, ATCC35218, Table 2, droplet (replicate 1 where replicated), ATCC 35218, 0.5 McF, 7 H, read-out: MIC
  MIC: 2 µg/mL (≈ 4.5 µM)
[1]; [7]
  MIC: 1.5 µg/mL (≈ 3.38 µM)
[2]; incubation time 4 H
  MIC: 0.3 µg/mL (≈ 0.675 µM)
[2]; incubation time 5 H
  MIC: 0.6 µg/mL (≈ 1.35 µM)
[2]; incubation time 6 H
  MIC: 0.66 µg/mL (≈ 1.49 µM)
[2]; incubation time 8 H
  MIC: 0.86 µg/mL (≈ 1.94 µM)
[2]; incubation time 24 H
  MIC: 1.77 µg/mL (≈ 3.98 µM)
[3]; [10]
  MIC: 1.5 µg/mL (≈ 3.38 µM)
[3]; incubation time 7 H (visual)
  MIC: 2 µg/mL (≈ 4.5 µM)
[4]; Escherichia coli, ATCC35218, Flooding, ATCC 35218, 0.5 McFarland, incubation time 4 H, read-out: minimum inhibitory concentration
  MIC: 0.44 µg/mL (≈ 0.99 µM)
[4]; Escherichia coli, ATCC35218, Flooding, ATCC 35218, 0.5 McFarland, incubation time 5 H, read-out: minimum inhibitory concentration
  MIC: 0.86 µg/mL (≈ 1.94 µM)
[4]; Escherichia coli, ATCC35218, Flooding, ATCC 35218, 0.5 McFarland, incubation time 6 H, read-out: minimum inhibitory concentration
  MIC: 0.96 µg/mL (≈ 2.16 µM)
[4]; Escherichia coli, ATCC35218, Flooding, ATCC 35218, 0.5 McFarland, incubation time 8 H, read-out: minimum inhibitory concentration
  MIC: 1.12 µg/mL (≈ 2.51 µM)
[4]; Escherichia coli, ATCC35218, Flooding, ATCC 35218, 0.5 McFarland, incubation time 24 H, read-out: minimum inhibitory concentration
  MIC: 2.3 µg/mL (≈ 5.18 µM)
[4]; Escherichia coli, ATCC35218, Table 2, flooding, ATCC 35218, 4 H, read-out: MIC
  MIC: 0.44 µg/mL (≈ 0.99 µM)
[4]; Escherichia coli, ATCC35218, Table 2, flooding, ATCC 35218, 5 H, read-out: MIC
  MIC: 0.86 µg/mL (≈ 1.94 µM)
[4]; Escherichia coli, ATCC35218, Table 2, flooding, ATCC 35218, 8 H, read-out: MIC
  MIC: 1.12 µg/mL (≈ 2.51 µM)
[4]; Escherichia coli, ATCC35218, Table 2, flooding, ATCC 35218, 28 H, read-out: MIC
  MIC: 2.3 µg/mL (≈ 5.18 µM)
[4]; Escherichia coli, ATCC35218, Table 2, flooding, ATCC 35218, column 4 headed 8 H (between 5 H and 7 H), read-out: MIC
  MIC: 0.96 µg/mL (≈ 2.16 µM)

## gentamicin
[1]; [5]
  minimum inhibitory concentration: 2 µg/mL
[1]; [6]
  minimum inhibitory concentration: 2 µg/mL
[1]; [8]
  MIC: 2 µg/mL
[1]; [9]
  MIC: 2 µg/mL
[1]; droplets of 13 nanoliters, ATCC 35218 at 0.5 McFarland, after 5 hours of incubation, shadowgraphy (FIGS. 9a-9d)
  minimum inhibitory concentration (MIC): 2 µg/mL
[2]; incubation time 4 H
  minimum inhibitory concentration: 1.74 µg/mL
[2]; incubation time 5 H
  minimum inhibitory concentration: 1.51 µg/mL
[2]; incubation time 6 H
  minimum inhibitory concentration: 1.75 µg/mL
[2]; incubation time 8 H
  minimum inhibitory concentration: 1.82 µg/mL
[2]; incubation time 24 H
  minimum inhibitory concentration: 1.54 µg/mL
[3]; [10]
  minimum inhibitory concentration: 2 µg/mL
[3]; incubation time 7 H (visual)
  minimum inhibitory concentration: 2 µg/mL
[4]; Flooding, ATCC 35218, 0.5 McFarland, incubation time 4 H
  minimum inhibitory concentration: 0.96 µg/mL
[4]; Flooding, ATCC 35218, 0.5 McFarland, incubation time 5 H
  minimum inhibitory concentration: 1.14 µg/mL
[4]; [11]
  minimum inhibitory concentration: 1.17 µg/mL
[4]; [12]
  minimum inhibitory concentration: 1.17 µg/mL
[4]; Flooding, ATCC 35218, 0.5 McFarland, incubation time 24 H
  minimum inhibitory concentration: 1.06 µg/mL
[4]; Table 2, flooding, ATCC 35218, 4 H
  MIC: 0.96 µg/mL
[4]; Table 2, flooding, ATCC 35218, 5 H
  MIC: 1.14 µg/mL
[4]; [13]
  MIC: 1.06 µg/mL
